Each structure is given as a SMILES string.

Broadly, the EC50 is the concentration giving half of the maximal effect. By fraction unbound is commonly meant free concentration divided by total concentration.

For series [1], the system named is L. donovani clones, CPSF3 Asn219His/Glu229Val. Put plainly: Drug sensitivity, L. donovani CRISPR-Cas9 edited CPSF3 Asn219His/Glu229Val. The series is classed as cell-based. As to the method:
A cell line constitutively expressing Cas9 and T7 RNA polymerase was generated by transfecting 4 × 10^7 promastigotes with the pTB007 vector (10 μg), as previously described.[29] Expression of Cas9 in selected clones was confirmed by western blotting (Figure S1). In addition, the CRISPR-Cas9 system in these parasites was confirmed as functional following the successful tagging of the flagellar protein PF16 with mNeonGreen, as previously described.[29]
To introduce specific mutations into CPSF3, 3 × 10^6 promastigotes expressing Cas9 and T7 RNA were resuspended in a 110 μL of Human T-Cell Nucleofector reagent and transfected with 18 μL of sgRNA and 4 μg of template using the Amaxa Nucleofector electroporator (program V-033). sgRNA was produced according to the previously established protocol from the Gluenz lab,[30] in which the scaffold primer G00 and a gene-specific forward primer (FwsgRNA) were used (Table S1). Twenty-four hours following transfection, DNDI-6148 was added to cultures at 6 μM. Drug-selected populations were cloned by limiting dilution, EC50s were determined, and genomic DNA was extracted. The CPSF3 gene from CRISPR-edited parasites was amplified by PCR, and the resulting products were sequenced.
(§1) Drug sensitivity assays with wild-type and transgenic T. brucei and L. donovani cell lines were carried out as previously described.[31],[32]

Series [2] is described as follows: Plasma-protein binding, human. The class given is in vitro ADME. As to conditions: pH 7.4. As to the method:
Tests were conducted by WuXi AppTec, Co., China, using the equilibrium dialysis method and a 96-well plate format. The test compound (at 2 μM, in triplicate) in solution in plasma (Balb/c mouse, golden (Syrian) hamster, Sprague-Dawley rat, Beagle dog or human) was dialyzed against 100 mM phosphate-buffered saline (pH 7.4) on a rotating plate incubated for 6 h at 37 °C. Following the precipitation of protein with acetonitrile or acetonitrile/methanol containing both 1% phosphoric acid, the amount of compound present in each compartment was quantified by LC-MS/MS.

Series [3] concerns wild-type L. donovani promastigotes. Put plainly: Drug sensitivity, wild-type L. donovani promastigotes. The class given is cell-based. As to conditions: Leishmania donovani, Figure 2D. As to the method: The clonal L. donovani cell line LdBOB (derived from MHOM/SD/62/1S-CL2D) was grown as promastigotes at 28 °C, as described previously. Bloodstream form T. brucei MiTat 1.2 clone 221a and its derived subline, 2T1, were cultured at 37 °C in the presence of 5% CO2 in HMI9-T medium, as described previously. T. brucei cell lines overexpressing CPSF3 and overexpressing a mutated version of CPSF3 (Asn232His) were generated as part of a previous study and cultured as described.[19]
as §1

Series [4] has as its system L. infantum. Put plainly: L. infantum mouse model of VL. The series is classed as in vivo.

On to `Cc1c(C(=O)Nc2ccc3c(c2)B(O)OC3)nnn1-c1ccccn1` [Compound 23, N-(1-Hydroxy-1,3-dihydrobenzo[c][1,2]oxaborol-6-yl)-5-methyl-1-(pyridin-2-yl)-1H-1,2,3-triazole-4-carboxamide], for which the “Fold change (relative to WT)” value in series [1] (CRISPR-Cas9 edited Asn219His/Glu229Val, listed as DNDI-6148) is recorded as over 5 fold. Moreover, the half-maximal effective concentration (EC50) came out at 2830 ± 139 µM in series [1] (Leishmania donovani) and 0.411 ± 0.012 µM in series [3]. The molecule also had a fraction unbound at 6 h, 2 µM in series [2] of 0.08. Further, the figures for the “reduction in liver parasite burden following 5 days of p.o. dosing BID, L. infantum” value in series [4] (25 mg/kg BID) and in series [4] (50 mg/kg BID) were 96.1% and 98.6%, respectively.
